We go through 2 compounds from patent publication US9993459B2, “Selective HDAC6 inhibitors and uses thereof” (Universiteit Gent, priority 2015, dated 2018).

One assay concerns NF-κβ. In words: NF-κβ-dependent luciferase reporter p(IL6kB)350hu.IL6P-luc in TNF-activated A549 cells. The format is cell-based. The settings on record: TNF-activated A549, 1 μM or 10 μM. The method, then:
(§1) FIG. 2: A549 cells with the stably integrated recombinant reporter gene p(GRE)2-50-luc (A) were pre-incubated with respective solvents, the selective Glucocorticoid Receptor modulator CpdA (10 μM), 7a, (1 μM or 10 μM), 7b (1 μM or 10 μM), 13a (1 μM or 10 μM) for 1 h after which the synthetic glucocorticoid dexamethasone (DEX,1 μM) was added, where indicated, for 5 h. A549 cells with the stably integrated recombinant reporter gene p(IL6kB)350hu.IL6P-luc (B) or Collagenase-luc (C) were pre-incubated with respective solvents, DEX (1 μM), CpdA (10 μM), 7a, (1 μM or 10 μM), 7b (1 μM or 10 μM), 13a (1 μM or 10 μM) for 1 h after which TNF (2000 units/ml) or PMA (20 nM) were added, where indicated, for 5 h. Cell lysates were assayed for luciferase activities. Promoter activities are expressed as relative induction factor calculated as percentage of maximal DEX (A), TNF (B) or PMA (C) responses. […] Assays were performed in triplicate, and results are averages of at least three independent experiments and shown ±S.D. ****p<0.0001; ***p<0.001; **p<0.01; *p<0.05. Statistical significance was determined on the averaged results, and analysis performed using one-way ANOVA tests followed by a Tukey multiple comparison post test. […]
A general note: A reporter such as luciferase makes a cellular process visible.

The subject of another assay is AP-1. The experiment in a line: AP1-dependent luciferase reporter pCollagenase-luc in PMA-treated A549 cells. Type of assay: cell-based. As to conditions: A549, 10 μM. How it is done: as §1

Regarding `O=C(NO)c1ccc(NCc2csc3ccccc23)cc1` [Compound 7a, 3-[(4-hydroxycarbamoylphenyl)aminomethyl]benzothiophene], the “block of the activity of NF-κβ” value in the assay with NF-κβ was “not able to block the activity of NF-κβ”. In the case of `O=C(NO)c1ccc(NCc2csc3ccc(Br)cc23)cc1` [Compound 7b, 5-bromo-3-[(4-hydroxycarbamoylphenyl)aminomethyl]-benzothiophene], the “block of the activity of NF-κβ” value in the assay with NF-κβ is “not able to block the activity of NF-κβ”. In addition, the “AP1-dependent promoter activity as compared to solvent control (DMSO)” value in the assay with AP-1 is “clearly induced the AP1-dependent promoter activity”.
